# Data: patent publication US7592326B2, “Method for stimulating the immune, inflammatory or neuroprotective response” (priority 2004, dated 2009)
# What was measured:
# [1] = system: Primary hippocampal cells; assay: Staurosporine-induced cell death in primary hippocampal cultures (CellTiter 96 AQueous Assay); assay type: cell-based; settings: 100 nM, 22 h
# Description: To assess the role of cyclic dinucleotides in modulating the neurological response, i.e., prevent cell death induced by staurosporine (STS) in primary hippocampal nerve cells, the effects of c-di-GMP on hippocampal cells was analyzed. Primary hippocampal cells were prepared according to previously described methods (Pereira et al., 1993). Briefly, the hippocampi were dissected from the brain of 18-day-old fetal rats. Following enzymatic and mechanical dissociation, cells were plated at a density of 100,000 cells/well in 96-well plates pre-coated with matrigel. At the 7th day after plating, cultures were subjected to one of the following treatments: (i) vehicle (24 h), (ii) STS (100 nM, 22 h), (iii) c-di-GMP (24 h), (iv) c-di-GMP (2 h) followed by c-di-GMP -plus-STS (22 h), (v) c-di-GMP -plus-STS (24 h), or (vi) STS (2 h) followed by c-di-GMP -plus-STS (22 h). At the end of the treatments, cell viability was analyzed using CellTiter 96® AQueous Assay (Promega). The assay involves the spectrophotometric measurement (at 490 nm) of the mitochondrial conversion of a tetrazolium dye into a colorful product. The absorbance of the assay correlates with the number of metabolically active cells.
# [2] = system: human basophils; assay: IL-3 dependent IL-13 secretion by human basophils; assay type: cell-based; settings: for inhibition of IL-13 induced by IL-3: 18-20 h culture, FIG. 18A
# [3] = Solubility
# [4] = assay type: in vitro ADME, human
# Description: Commercially supplied pooled human serum (100 uL) (Cambrex Bio Science Walkersville, Inc.) was diluted in ion-exchanged water. An aliquot of the resulting human serum solution was subjected to HPLC analysis (conditions: COSMOSIL 5C18-AR-II column (4.6×200 mm); buffer A; buffer B, 80% acetonitrile in water; gradient, 0-10 min A 100%, 10-60 min A:B=100:0 to A:B=40:60 in 50 min; detection 254 nm, flow rate, 1.0 mL/min, temperature 40° C.). Separately, a 100 uM of c-di-GMP solution in human serum was prepared by adding 100 uL of a 500 uM c-di-GMP aqueous solution to a mixture of 390 uL of human serum and 10 uL of 40 mM 2-methylbenzimidazole (an internal standard for estimating the extent of decomposition of c-di-GMP) in methanol. An aliquot of the test solution was diluted immediately after the preparation solution and then heated at 100° C. for 5 min to quench activity of enzymes. The resulting test sample was subjected to HPLC analysis after 24 h treatment. Peaks that appeared in both analyses were compared. Results are based on 3 independent experiments.
# [5] = system: lung leukocytes; assay: Lung leukocyte accumulation in Klebsiella-infected mice (lung digest, flow cytometry); assay type: in vivo, Balb/c mice
# [6] = system: human basophils; assay: IgE-dependent IL-4 secretion by human basophils; assay type: cell-based
# Description: (§1) Studies investigating the effect of the TBDMS-cGpGp analog on IgE-dependent IL-4 and histamine secretion induced by cross-linking were then performed. […] The inhibition of IL-4 was evident using the TBDMS-cGpGp analog as well as the cGpAp analog. Note that IgE-mediated histamine release is 90% complete within 20 minutes after stimulation- histamine is preformed and store in cytoplasmic granules. Although IL-4 is not preformed, it is rapidly generated denovo and secreted within 3-6 hours. In performing these experiments, a standard protocol for testing various anti-allergic drugs was used.
# (§2) Specifically, the basophils were pretreated 15 minutes with the analogs before adding anti-IgE antibody for activation. Culture supernatants were analyzed for histamine and IL-4 three hours later. Thus, unlike the IL-13 induced by IL-3 during an 18-20 h culture, the release of histamine and IL-4 are far more rapid under IgE crosslinking conditions. It may be that inhibition would be greater if a greater pre-incubation time was performed with the analogs. Additional experiments will test different pre-incubation times to determine whether greater inhibition is observed. It is important to note that neither analog induced histamine release or IL-4 when used alone at the 50 uM concentration. T this is additional evidence that the inhibitory effect in not due to toxicity- histamine would most likely be released if the analogs were causing cell lysis.
# IL-4 measurements were made in an experiment where the cyclic dinucleotide analogs were tested in a 1 hour pretreatment of basophils before activating with anti-IgE antibody. The control release to anti-IgE antibody was 262 pg/106 basophils (a relatively robust response being that cell responsiveness decreases the longer the wait before activating). Both the TBMDS-cGpGp and cGpAp analogs produced ˜30% inhibition at the 50μM concentration. […] It may be that overnight incubation with cyclic dinucleotide (similar to the IL-13 inhibition studies) would show even greater inhibition.
# [7] = system: pDC; assay: Cytokine secretion by pDC treated with TBDMS analog; assay type: cell-based, human
# Description: Whether or not TBDMS would directly induce (or affect CpG-dependent) cytokine (IL-6, TNF-alpha, IL-10) secretion was then tested. […] IL-6 was not measured. […] Cells from one of the 3 subjects did secrete 100-200 pg/10^6 cells more TNF-alpha than the ˜400 secreted in medium alone. The same pattern was seen using these cells when the combination of CpG and TMDMS was used. However, these effects were not evident for the other two pDC preparations.
# [8] = system: basophils; assay: SOCS expression in basophils (real-time PCR); assay type: cell-based, human
# Description: Whether or not cyclic dinucleotides affected induction of SOCS (Suppresser Of Cytokine Synthesis) expression in basophils treated with CDN's was then tested. […] Cells were treated for 18 h, total RNA isolated, and RT-PCR performed for SOCS-1, SOCS-3, and the HPRT housekeeping gene. The fact that cGpGp also induces SOCS-1 may explain why some inhibition of IL-3-induced IL-13 secretion is observed with this cyclic dinucleotide analog. […] In the current IL-13 assay, the cyclic dinucleotide is added simultaneously with IL-3. The TBDMS-cGpGp likely induces SOCS-1 expression faster and thus accounts for greater inhibition of IL-13. […] While modest inhibitory activity with cGpGp was observed, evidence that cGpGp induces SOCS-1 and sometimes better than TBDMS-cGpGp at this particular time point was observed. These differences might be explained by kinetics and it may be that SOCS gene expression would be higher following TBDMS-cGpGp treatment when examined at an earlier time point.
# [9] = system: human basophils; assay: IgE-dependent histamine release by human basophils; assay type: cell-based; settings: 15 minutes pretreatment
# Description: as §1
# as §2, with “T this is additional evidence that the inhibitory effect in not due to toxicity- histamine would most likely be released if the analogs were causing cell lysis.” left out
# [10] = 50 uM, 15 minutes pretreatment, supernatants three hours later, FIG. 18B
# [11] = 50μM, 1 hour pretreatment, control release 262 pg/106 basophils
smiles,measurement,setting,value
"CN[C@@H]1C[C@H]2O[C@@](C)([C@@H]1OC)n1c3ccccc3c3c4c(c5c6ccccc6n2c5c31)C(=O)NC4 [STS, staurosporine, reference compound]",cell death in primary hippocampal cultures,[1],caused significant cell death
Nc1nc2c(ncn2[C@@H]2O[C@@H]3COP(=O)(O)O[C@H]4[C@@H](O)[C@H](n5cnc6c(=O)[nH]cnc65)O[C@@H]4COP(=O)(O)O[C@H]3[C@H]2O)c(=O)[nH]1 [cGpIp],enhancement of IL-13 induced by IL-3,[2]; two experiments,25%
"Cc1nc2ccccc2[nH]1 [2-methylbenzimidazole, reference compound]","solubility in water, methanol, and acetonitrile",[3],fairly soluble
same,stability in human serum,[4],stable
"Nc1nc2c(ncn2[C@@H]2O[C@@H]3COP(=O)(O)O[C@H]3[C@H]2O)c(=O)[nH]1 [CTL, reference compound]",Total number lung cells,"[5]; i.n. pretreatment 48 and 24 hr prior, lung digests 48 hrs after K. pneumoniae (kp), uninfected 2.7 × 10^7",3.57 × 10^7
same,"αβTcr^+, CD69^+","[5]; lung digests 48 hrs after kp, uninfected 0.33 × 10^5",2.7 × 10^5
same,"DX5^+, CD69^+","[5]; lung digests 48 hrs after kp, uninfected 0.78 × 10^5",2.7 × 10^5
same,PMN,"[5]; lung digests 48 hrs after kp, uninfected 0.8 × 10^6",7.35 × 10^6
same,DX5^+ (NK),"[5]; lung digests 48 hrs after kp, uninfected 1.3 × 10^6",2.5 × 10^6
same,"DX5^+, αβγδTcr^+(NK T^+)","[5]; lung digests 48 hrs after kp, uninfected 1.6 × 10^5",4.7 × 10^5
same,Mono/Macrophage,"[5]; lung digests 48 hrs after kp, uninfected 2.3 × 10^7",2.88 × 10^7
same,αβTcr^+,"[5]; lung digests 48 hrs after kp, uninfected 2.6 × 10^6",3.38 × 10^6
"CC(C)(C)[Si](C)(C)O[C@@H]1[C@@H]2OP(=O)(O)OC[C@H]3O[C@@H](n4cnc5c(=O)[nH]c(N)nc54)[C@H](O)[C@@H]3OP(=O)(O)OC[C@H]2O[C@H]1n1cnc2c(=O)[nH]c(N)nc21 [TBDMS-cGpGp, 2′-O-TBDMS-c-di-GMP]",inhibition of IgE-dependent IL-4,[6]; [10],30%
same,inhibition of IgE-dependent IL-4,[6]; [11],~30%
same,effect on TNF-alpha and IL-10,[7]; alone or with CpG,little to no effect
same,TNF-alpha secreted above the ˜400 in medium alone,[7]; cells from one of the 3 subjects,100-200 pg/10^6 cells
same,IL-10 secretion,"[7]; used by itself, n=3",did not cause IL-10 secretion
same,time of SOCS mRNA peak,[8],~12 h
same,SOC-3 mRNA,[8]; 18 h treatment,induced
same,SOCS-1 mRNA,[8]; 18 h treatment,induced
same,effect on IgE-dependent histamine release,[9],essentially no effect
same,inhibition of IL-13 induced by IL-3,[2]; 10 micromolar,30-40%
same,inhibition of IL-13 induced by IL-3,"[2]; 50 micromolar, at least 5 independent experiments",70-80%
Nc1nc2c(ncn2[C@@H]2O[C@@H]3COP(=O)(O)O[C@H]4[C@@H](O)[C@H](n5cnc6c(N)ncnc65)O[C@@H]4COP(=O)(O)O[C@H]3[C@H]2O)c(=O)[nH]1 [cGpAp],inhibition of IgE-dependent IL-4,[6]; [10],evident
same,inhibition of IgE-dependent IL-4,[6]; [11],~30%
same,effect on IL-13 induced by IL-3,[2]; under the conditions tested,little effect
